# Laboratory results published in patent publication US20240287003A1, “ETHACRYNIC ACID DERIVATIVES AS INHIBITORS OF MPRO PROTEASE AND SARS-COV-2 REPLICATION” (UNIVERSITE EUROMEDITERRANEENNE DE FES, priority 2021, published 2024).
# Where two headings read alike, the source gives them in different places.
# Assays:
# Mpro = Mpro (Severe acute respiratory syndrome coronavirus 2, UniProt P0DTD1); details: read-out: IC50 (half-maximal inhibitory concentration), Dai et al., Science 2020; cited from earlier work
# SARS-COV-2 [1] = details: Rut et al., Nat. Chem. Biol. 2021; cited from earlier work
# SARS-COV-2 [2] = details: VeroE6 cells, RNA replication by qPCR; Hattori et al. 2021; read-out: EC50, blocking of SARS-COV-2 infection; cited from earlier work
# SARS-COV-2 [3] = assay: microbe, parasite or virus in culture; assay type: cell-based; details: Vero cells; for reduction in the infectivity titres compared with the control: 4 h pre-incubation, MOI 0.04, 48 h; for reduction in infectivity titres compared with the control: 10 μM; for inhibition at 6 µM / inhibition at 8 µM: Severe acute respiratory syndrome coronavirus 2; for inhibition at 6 µM: read-out: inhibition of viral replication; for inhibition at 8 µM: read-out: inhibition percentage
# [4] = 6 μM, same experimental conditions
Compound,reduction in infectivity titres compared with the control (SARS-COV-2 [3]; same experimental conditions) [%],inhibition at 6 µM (SARS-COV-2 [3]; [4]) [%],inhibition at 8 µM (SARS-COV-2 [3]; same experimental conditions) [%],reduction in the infectivity titres compared with the control (SARS-COV-2 [3]; 16.6 μM) [%],other results
O=C[C@H](C[C@@H]1CCNC1=O)NC(=O)[C@H](Cc1cccc(F)c1)NC(=O)c1cc2ccccc2[nH]1 [11b],,,,,IC50 (Mpro): 0.04 µM
Ac-Abu-dTyr-Leu-Gln-VS [Ac-QSS-VS (15)],,,,,EC50 (SARS-COV-2 [1]): 3.7 µM
O=C(Oc1cncc(Cl)c1)c1cccc2c1CCN2 [GRL-1720],,,,,EC50 (SARS-COV-2 [2]): 15 ± 4 µM
"C=C(CC)C(=O)c1ccc(OCC(=O)Nc2cccc3cn(C)nc23)c(Cl)c1Cl [P30, 2-(2,3-dichloro-4-(2-methylenebutanoyl)phenoxy)-N-(2-methyl-2H-indazol-7-yl)acetamide]",100,~30,~99.7,,reduction in the infectivity titres compared with the control (SARS-COV-2 [3]; 5.54 μM): 96.75%
"C=C(CC)C(=O)c1ccc(OCC(=O)Nc2ccc3[nH]ncc3c2)c(Cl)c1Cl [P26, 2-(2.3-dichloro-4-(2-methylenebutanoyl)phenoxy)-N-(1H-indazol-5-yl)acetamide]",93.09,~30,~52.1,97.96,
"C=C(CC)C(=O)c1ccc(OCC(=O)Nc2ccc3c(cnn3C)c2)c(Cl)c1Cl [P7, 2-(2,3-dichloro-4-(2-methylenebutanoyl)phenoxy)-N-(1-methyl-1H-indazol-5-yl)acetamide]",100,,~96.7,100,inhibition of viral replication (SARS-COV-2 [3]; [4]): did not inhibit virus replication at all
